Laboratory results published in patent US9192601B2, “Methods for enhancing muscle performance and tone” (Salk Institute for Biological Studies, priority 2006, dated 2015).

Experiments:
quadriceps muscle = test: Microarray analysis of quadriceps (Affymetrix mouse genome 430A 2.0); format: in vivo
C57B/6J mice = test: Treadmill running endurance test; format: in vivo, mouse; conditions: 500 mg/kg/day, 4 weeks, no exercise
Procedure: Mice were acclimated to moderate treadmill running (10 m/min for 15 min) every other day for 1 week. After acclimation, basal running endurance was determined by placing each mouse on a treadmill, gradually increasing the speed from 0 to 15 m/min, and maintaining 15 m/min until the mouse was exhausted. The time and distance run until exhaustion were recorded as the basal endurance values (Week 0).
Treatments were administered orally.
Expression of biomarkers characteristic of an oxidative phenotype in skeletal muscle, typically, has been correlated with increased oxidative performance (e.g., increased running endurance) of such skeletal muscle. […] Accordingly, to determine the functional effects of ligand, age and weight matched cohorts of treated and control mice were subjected to an endurance treadmill performance test before (week 0) and after (week 5) treatment.
In addition to affecting the contractile apparatus of skeletal muscle, exercise training also increases skeletal muscle mitochondrial density (e.g., Freyssenet et al., Arch. Physiol. Biochem., 104(2): 129-141, 1996). […] Mice in all groups were acclimated to moderate treadmill running and basal running endurance was determined as described in Example 1. Thereafter, mice in the exercise-trained groups received four weeks (5 days/week) of exercise training on a treadmill inclined at 5 degrees. […] At the end of four weeks, all exercise-trained mice were running for 50 min/day at 18 m/min. […] Unless otherwise noted, V, GW, Tr and GW+Tr subjects described in this and the examples below were similarly treated. At the end of the drug treatment and/or training protocol (Week 5) 6 mice per group were subjected to the running test. […] RNA was prepared real time quantitative PCR performed as described in Example 1.
At the end of the drug treatment and/or training protocol (Week 5) 6 mice per group were subjected to the running test.
At the end of the drug treatment and/or training protocol (Week 5), running endurance of six mice per group was determined in the same manner as was basal running endurance. […] on three mice in each group to confirm that changes observed in the skeletal muscle were not due to the acute run, but were related to the exercise training.

[1] = test system: myoglobin, UCP3, cytochrome c (CYCS) and SCDl; test: Western blotting of oxidative biomarkers in quadriceps; format: in vivo, mouse; conditions: AICAR 500 mg/kg/day, 4 weeks, quadriceps
Procedure: In addition to gene expression, protein expression was determined for selective oxidative biomarkers including myoglobin, UCP3, cytochrome c (CYCS) and SCDl, using Western blotting. Protein homogenates were prepared from quadriceps muscle, separated by SDS polyacrylamide gel electrophoresis, transferred to blotting membrane and probed with antibodies specific for myoglobin (Dako), UCP3 (Affinity Bioreagents), cytochrome c (Santacruz) SCDl (Santacruz), and, as a loading control, tubulin (Sigma).

AMPK = test: Western blot of phospho-AMPK in quadriceps; format: in vivo, mouse; conditions: AICAR 500 mg/kg/day, 4 weeks, quadriceps
Excerpt: Exercise training is known to activate kinases, such as p44/42 MAPK and AMPK, which regulate gene expression in skeletal muscle (Chen et al., Diabetes, 52:2205-12, 2003; Goodyear et al., Am. J. Physiol, 271:[…]-8, 1996). AMPK affects skeletal muscle gene expression and oxidative metabolism (Chen et al., Diabetes. 52: 2205-12, 2003, Reznick et al., J. Physiol. 574: 33-9, 2006). The interaction between exercise-regulated kinases and PPARδ signaling is described in this Example. The levels of phospho-p44/42 MAPK and phospho-AMPK a subunit and total AMPK were determined in protein homogenates of quadriceps muscle by Western blot. Antibodies specific for phospho-p44/42 MAPK, phospho- and total-AMPK αl antibodies were obtained from Cell Signaling. The phospho-specific AMPK αl antibody recognizes the key activating threonine in the activation loop.

Oxygen consumption = format: in vivo, mouse; conditions: AICAR 500 mg/kg/day, 4 weeks
[2] = AICAR alone, untrained mice, quadriceps

## NC(=O)c1ncn([C@@H]2O[C@H](CO)[C@@H](O)[C@H]2O)c1N [AICAR, 5-amino-4-imidazolecarboxamide riboside]
Quadriceps muscle; [2]
  Aacs expression: 1.875
  Acly expression: 1.687
  Adipoq expression: 2.043
  Ak2 expression: 1.486
  Apoe expression: 1.403
  Cd36 expression: 1.386
  Ces3 expression: 1.516
  Cidea expression: 5.021
  Dgat2 expression: 2.034
  Elovl6 expression: 2.134
  Fabp4 expression: 1.709
  Fasn expression: 2.098
  Lep expression: 2.047
  Lipe expression: 1.64
  Lpl expression: 1.386
  Mgll expression: 1.503
  Mgst1 expression: 1.602
  Nrip1 expression: 1.474
  Pck1 expression: 2.68
  Pcx expression: 1.393
  Pdk4 expression: 1.321
  Pparg expression: 3.027
  Retn expression: 1.891
  Scd1 expression: 1.931
  Sdhd expression: 1.529
  Sfxn1 expression: 1.713
  Slc25a5 expression: 1.372
  Sult1a1 expression: 2.021
  Tspo expression: 1.441
  Ucp1 expression: 3.623
  Ucp3 expression: 1.258
Quadriceps muscle; AICAR treatment alone
  number of upregulated genes linked to oxidative metabolism: 32 genes
C57B/6J mice
  ran further than vehicle-treated mice (distance): ~44%
  ran longer than vehicle-treated mice (time): ~23%
[1]
  expression of UCP3 (immunoblot): increased expression
AMPK
  phosphorylation of AMPK a subunit and acetyl CoA carboxylase (ACC): increased phosphorylation
Oxygen consumption
  oxygen consumption: increased
